Source: ChEMBL document CHEMBL1156560, “4-(1,1-Dioxo-1,4-dihydro-1lambda6-benzo[1,4]thiazin-3-yl)-5-hydroxy-2H-pyridazin-3-ones as potent inhibitors of HCV NS5B polymerase” (Bioorg Med Chem Lett, 2008)

Assays:
[1] = Oral bioavailability in cynomolgus monkey at 1 mg/kg; format: ADME, organism-based, Macaca fascicularis; conditions: in vivo
[2] = Apparent permeability from apical to basolateral side in human Caco-2 cells at 10 uM; format: ADME, cell-based
[3] = Metabolic stability in monkey liver microsomes; format: ADME, Macaca mulatta, Microsome; conditions: rhesus monkey
[4] = test system: Hepatitis C virus; test: Antiviral activity against HCV 1b BK delta21 in Huh7/C24 cells after 72 hrs by replicon assay; format: functional, organism-based, Hepacivirus hominis; conditions: genotype 1b BK, Huh7/C24, 72 h
[5] = test system: Hepatitis C virus; test: Inhibition of HCV 1b BK delta21 NS5B delta21 polymerase; parameters: species or system Hepatitis C virus subtype 1b
[6] = Cytotoxicity against human Huh7/C24 cells after 72 hrs; format: cell-based, Huh-7
[7] = Metabolic stability in human liver microsomes assessed as half life; format: ADME, Microsome

bioavailability [1] [%] | Papp A→B at 10 µM [2] [×10⁻⁶ cm/s] | half-life [3] [min] | EC50 [4] [nM] | IC50 [5] [nM] | half-life [7] [min] | SMILES | CC50 at 72 h [6] [nM]
12 | 0.2 | – | – | – | – | CC(C)CCn1nc(-c2cccs2)c(O)c(C2=NS(=O)(=O)c3cc(N(C)S(C)(=O)=O)ccc3N2)c1=O | –
– | 0.02 | – | – | – | – | CC(C)CCn1nc(-c2cccs2)c(O)c(C2=Nc3ccc(NS(C)(=O)=O)cc3S(=O)(=O)N2)c1=O | –
33 | 1.3 | > 60 | – | – | – | Cc1ccc(-c2nn(Cc3ccccc3)c(=O)c(C3=Nc4ccccc4S(=O)(=O)N3)c2O)s1 | –
0 | – | – | 8.5 | < 10 | – | CC(C)CCn1c(=O)c(C2=Nc3ccc(NS(C)(=O)=O)cc3S(=O)(=O)N2)c(O)c2cccn21 | –
– | – | – | 36 | 18 | > 60 | CS(=O)(=O)Nc1ccc2c(c1)S(=O)(=O)C=C(c1c(O)c(-c3cccs3)nn(Cc3ccccc3)c1=O)N2 | > 1000
4 | 0.012 | 20 | 1.1 | < 10 | > 60 | CC(C)CCn1nc(-c2cccs2)c(O)c(C2=CS(=O)(=O)c3cc(NS(C)(=O)=O)ccc3N2)c1=O | > 1000
1 | 0.019 | 34 | 190 | 250 | 36 | CC(C)CCn1nc(-c2ccccc2)c(O)c(C2=CS(=O)(=O)c3cc(NS(C)(=O)=O)ccc3N2)c1=O | > 33000
– | – | – | – | 1600 | – | CC(C)CCn1nc(-c2cccs2)c(O)c(C2=CS(=O)(=O)c3cc(N(C)S(C)(=O)=O)ccc3N2)c1=O | –
– | – | – | 2.7 | < 10 | 30 | CCC(C)(C)CCn1nc(-c2cccs2)c(O)c(C2=CS(=O)(=O)c3cc(NS(C)(=O)=O)ccc3N2)c1=O | > 1000
– | – | – | 15 | 39 | 43 | CS(=O)(=O)Nc1ccc2c(c1)S(=O)(=O)C=C(c1c(O)c(-c3cccs3)nn(CC3CCCC3)c1=O)N2 | > 1000
– | – | – | 3.5 | 15 | > 60 | CS(=O)(=O)Nc1ccc2c(c1)S(=O)(=O)C=C(c1c(O)c(-c3cccs3)nn(CC3CC3)c1=O)N2 | > 1000
1 | 0.3 | 4.7 | 1.5 | < 10 | 30 | CC(C)(C)CCn1c(=O)c(C2=CS(=O)(=O)c3cc(NS(C)(=O)=O)ccc3N2)c(O)c2cccn21 | > 1000
13 | 0.3 | 37 | – | 12000 | – | Cc1ccc(-c2nn(Cc3ccccc3)c(=O)c(C3=CS(=O)(=O)c4ccccc4N3)c2O)s1 | –
– | – | – | – | 9000 | > 60 | Cc1ccc(-c2nn(Cc3ccccc3)c(=O)c(C3=CS(=O)(=O)c4cc(N(C)S(C)(=O)=O)ccc4N3)c2O)s1 | –
– | – | – | – | 1600 | > 60 | Cc1ccc(-c2nn(Cc3ccccc3)c(=O)c(C3=CS(=O)(=O)c4cc(NS(C)(=O)=O)ccc4N3)c2O)s1 | –
– | 0.027 | – | 13 | 27 | > 60 | CC(C)CCn1c(=O)c(C2=CS(=O)(=O)c3cc(NS(C)(=O)=O)ccc3N2)c(O)c2cccn21 | > 1000
4 | 0.012 | 20 | 940 | 440 | > 60 | CC(C)CCn1c(=O)c(C2=CS(=O)(=O)c3cc(N(C)S(C)(=O)=O)ccc3N2)c(O)c2cccn21 | > 33000
